Test results as given in patent publication US9718817B2, “Aryl and heteroaryl ether compounds as ROR gamma modulators” (Glenmark Pharmaceuticals S.A., priority 2014, dated 2017).
pIC50: −log10 of the molar value.

Molecular target: T1, GST-tagged ROR gamma ligand binding domain (LBD) (Homo sapiens, UniProt P51449)
T1 construct: purchased Invitrogen
T1 sequence (P51449 269-508 limits assumed): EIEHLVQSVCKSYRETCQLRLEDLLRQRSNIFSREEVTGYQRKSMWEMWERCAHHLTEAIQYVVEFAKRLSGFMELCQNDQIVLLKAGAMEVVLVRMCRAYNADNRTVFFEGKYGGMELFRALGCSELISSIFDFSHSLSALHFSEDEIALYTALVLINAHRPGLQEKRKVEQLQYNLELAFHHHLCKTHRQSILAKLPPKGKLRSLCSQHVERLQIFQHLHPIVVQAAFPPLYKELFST
Experiment: TR-FRET assay for ROR gamma (LanthaScreen co-activator peptide recruitment)
Format: biochemical
Conditions: for pIC50: class symbols, from dose response curve; for inhibition at 1 µM: compound 1 μM; for inhibition at 1 µM / inhibition at 10 µM: TR-FRET ratio 520/495, percent of control; for inhibition at 10 µM: compound 10 μM
How it was run: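 Antagonist mode: 10 nM GST-RORγ LBD pre-incubated with compound 1 h at 22 °C in 25 mM HEPES pH 7.4, 100 mM NaCl, 5 mM DTT, 0.01% BSA, 4% DMSO final. Then 300 nM fluorescein-D22 co-activator peptide plus 10 nM Tb-anti-GST added, 1 h at room temperature. IC50 by nonlinear regression of the 520/495 TR-FRET ratio as percent of no-compound control.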

Compound	pIC50	inhibition at 1 µM [%]	inhibition at 10 µM [%]
CCS(=O)(=O)c1ccc(CC(=O)Nc2ccc(OC3(c4ccc(Cl)c(F)c4)CCC3)cc2)cc1 [Example 32, N-(4-{[1-(4-Chloro-3-fluorophenyl)cyclobutyl]oxy}phenyl)-2-[4-(ethylsulfonyl)phenyl]acetamide]	> 7.30	83.7	88.5
CCS(=O)(=O)c1ccc(CC(=O)Nc2ccc(OC3(c4ccc(F)c(F)c4)CCC3)cc2)cc1 [Example 34, N-{4-[1-(3,4-Difluoro-phenyl)-cyclobutoxy]-phenyl}-2-(4-ethanesulfonyl-phenyl)-acetamide]	> 7.30	86.6	89.7
CCn1c(C(C)(C)Oc2ccc(NC(=O)Cc3ccc(S(=O)(=O)CC)cc3)cc2F)nc2cc(F)ccc21 [Example 111, 2-(4-Ethanesulfonyl-phenyl)-N-{4-[1-(1-ethyl-5-fluoro-1H-benzoimidazol-2-yl)-1-methyl-ethoxy]-3-fluoro-phenyl}-acetamide]	> 7.30	88	86.8
CCS(=O)(=O)c1ccc(CC(=O)Nc2ccc(C#CC(C)(C)Oc3ccc(C#N)cc3)cc2)cc1 [Example 79, N-{4-[3-(4-Cyano-phenoxy)-3-methyl-but-1-yn-1-yl]-phenyl}-2-(4-ethanesulfonyl-phenyl)-acetamide]	> 7.30	79.9	86.1
CCS(=O)(=O)c1ccc(CC(=O)Nc2ccc(C#CC(C)(C)Oc3ccc(Cl)c(F)c3)c(F)c2)cc1 [Example 106, N-{4-[3-(4-Chloro-3-fluoro-phenoxy)-3-methyl-but-1-ynyl]-3-fluoro-phenyl}-2-(4-ethanesulfonyl-phenyl)-acetamide]	> 7.30	81.9	85.9
CCS(=O)(=O)c1ccc(CC(=O)Nc2ccc(OC3(c4nnc5ccc(Cl)cn45)CCC3)cc2)cc1 [Example 27, N-{4-[1-(6-Chloro-[1,2,4]triazolo[4,3-a]pyridin-3-yl)-cyclobutoxy]-phenyl}-2-(4-ethanesulfonyl-phenyl)-acetamide]	7.00 to 7.30	69.7	90
CCS(=O)(=O)c1ccc(CC(=O)Nc2ccc(C#CC(C)(C)Oc3ccc(OC(F)(F)F)cc3)cc2)cc1 [Example 77, 2-(4-Ethanesulfonyl-phenyl)-N-{4-[3-methyl-3-(4-trifluoromethoxy-phenoxy)-but-1-yn-1-yl]-phenyl}-acetamide]	> 7.30	82.8	87.1
CCS(=O)(=O)c1ccc(CC(=O)Nc2ccc(OC3(c4ccc(F)c(F)c4)CCOCC3)cc2)cc1 [Example 35, N-{4-[4-(3,4-Difluoro-phenyl)-tetrahydro-pyran-4-yloxy]-phenyl}-2-(4-ethanesulfonyl-phenyl)-acetamide]	7.00 to 7.30	79.5	86.7
CCS(=O)(=O)c1ccc(CC(=O)Nc2ccc(C#CCOc3ccc(Cl)c(Cl)c3)cc2)cc1 [Example 61, N-{4-[3-(3,4-Dichlorophenoxy)prop-1-yn-1-yl]phenyl}-2-[4-(ethylsulfonyl)phenyl]acetamide]	< 7.00	85.5	92.9
CCS(=O)(=O)c1ccc(CC(=O)Nc2ccc(OC(C)(C)c3ncc(Cl)cc3Cl)c(F)c2)cc1 [Example 95, N-{4-[1-(3,5-Dichloro-pyridin-2-yl)-1-methyl-ethoxy]-3-fluoro-phenyl}-2-(4-ethanesulfonyl-phenyl)-acetamide]	> 7.30	75.7	77.6
CCS(=O)(=O)c1ccc(CC(=O)Nc2ccc(OC(C)(C)c3ccc(Cl)c(Cl)c3)cc2)cc1 [Example 4, N-(4-{[2-(3,4-Dichlorophenyl)propan-2-yl]oxy}phenyl)-2-[4-(ethylsulfonyl)phenyl]acetamide]	> 7.30	80.5	86.4
CCS(=O)(=O)c1ccc(CC(=O)Nc2ccc(OC(C)(C)c3ccc(Cl)cc3F)c(F)c2)cc1 [Example 98, N-{4-[1-(4-Chloro-2-fluoro-phenyl)-1-methyl-ethoxy]-3-fluoro-phenyl}-2-(4-ethanesulfonyl-phenyl)-acetamide]	–	55	49.6
CCCn1c(C(C)(C)Oc2ccc(F)cc2F)nc2cc(NC(=O)Cc3ccc(S(=O)(=O)CC)cc3)ccc21 [Example 115, N-{2-[1-(2,4-Difluoro-phenoxy)-1-methyl-ethyl]-1-propyl-1H-benzoimidazol-5-yl}-2-(4-ethanesulfonyl-phenyl)-acetamide]	> 7.30	82.4	88.3
CCS(=O)(=O)c1ccc(CC(=O)Nc2ccc(OC3(c4ccc(Cl)cc4)CCOCC3)cc2)cc1 [Example 37, N-{4-[4-(4-Chlorophenyl)-tetrahydro-pyran-4-yloxy]-phenyl}-2-(4-ethanesulfonyl-phenyl)-acetamide]	< 7.00	80.8	83.2
CCN(C(=O)C(C)(C)Oc1ccc(NC(=O)Cc2ccc(S(=O)(=O)CC)cc2)cc1)c1ccc(Cl)c(F)c1 [Example 130, N-(4-Chloro-3-fluorophenyl)-N-ethyl-2-(4-(2-(4-(ethylsulfonyl)phenyl)acetamido)phenoxy)-2-methylpropanamide]	< 7.00	73	85.2
CCS(=O)(=O)c1ccc(CC(=O)Nc2ccc(C#CC(C)(C)Oc3ccc(Cl)cc3)cc2)cc1 [Example 64, N-{4-[3-(4-Chloro-phenoxy)-3-methyl-but-1-yn-1-yl]-phenyl}-2-(4-ethanesulfonyl-phenyl)-acetamide]	> 7.30	82.2	84.2
CCS(=O)(=O)c1ccc(CC(=O)Nc2ccc(C#CC(C)(C)Oc3ccc(Cl)cc3Cl)cc2)cc1 [Example 63, N-{4-[3-(2,4-Dichloro-phenoxy)-3-methyl-but-1-yn-1-yl]-phenyl}-2-(4-ethanesulfonyl-phenyl)-acetamide]	> 7.30	80.5	84.5
CCS(=O)(=O)c1ccc(CC(=O)Nc2ccc(OC(C)(C)Cn3ccc4cc(Cl)ccc43)c(F)c2)cc1 [Example 104, N-{4-[2-(5-Chloro-indol-1-yl)-1,1-dimethyl-ethoxy]-3-fluoro-phenyl}-2-(4-ethanesulfonyl-phenyl)-acetamide]	7.00 to 7.30	74.5	79.2
CCS(=O)(=O)c1ccc(CC(=O)Nc2ccc(C#CC(C)(C)Oc3ccc(F)c(F)c3)cc2)cc1 [Example 70, N-{4-[3-(3,4-Difluoro-phenoxy)-3-methyl-but-1-yn-1-yl]-phenyl}-2-(4-ethanesulfonyl-phenyl)-acetamide]	> 7.30	77.7	81.3
CCS(=O)(=O)c1ccc(CC(=O)Nc2ccc(C#CC(C)(C)Oc3ccc(Cl)c(F)c3)cc2)cc1 [Example 66, N-{4-[3-(4-Chloro-3-fluoro-phenoxy)-3-methyl-but-1-yn-1-yl]-phenyl}-2-(4-ethanesulfonyl-phenyl)-acetamide]	> 7.30	84.3	87.5
CCn1c(C(C)(C)Oc2ccc(NC(=O)Cc3ccc(S(=O)(=O)CC)cc3)cc2)nc2cc(F)ccc21 [Example 15, 2-(4-Ethanesulfonyl-phenyl)-N-{4-[1-(1-ethyl-5-fluoro-1H-benzoimidazol-2-yl)-1-methyl-ethoxy]-phenyl}-acetamide]	> 7.30	83	85.2
CCS(=O)(=O)c1ccc(CC(=O)Nc2ccc(OC3(c4ccc(Cl)c(F)c4)COC3)c(F)c2)cc1 [Example 102, N-{4-[3-(4-Chloro-3-fluoro-phenyl)-oxetan-3-yloxy]-3-fluoro-phenyl}-2-(4-ethanesulfonyl-phenyl)-acetamide]	> 7.30	81.7	84
CCS(=O)(=O)c1ccc(CC(=O)Nc2ccc(OC3(c4ccc(Cl)c(F)c4)CCOCC3)nc2)cc1 [Example 55, N-{6-[4-(4-Chloro-3-fluoro-phenyl)-tetrahydro-pyran-4-yloxy]-pyridin-3-yl}-2-(4-ethanesulfonyl-phenyl)-acetamide]	–	75.5	80.3
CCS(=O)(=O)c1ccc(CC(=O)Nc2ccc(C#CC(C)(C)Oc3ccc(Cl)cc3F)nc2)cc1 [Example 80, N-{6-[3-(4-Chloro-2-fluoro-phenoxy)-3-methyl-but-1-yn-1-yl]-pyridin-3-yl}-2-(4-ethanesulfonyl-phenyl)-acetamide]	–	50.2	62.4
CCS(=O)(=O)c1ccc(CC(=O)Nc2ccc3c(c2)nc(C(C)(C)Oc2ccc(F)cc2F)n3CCN(C)C)cc1 [Example 113, N-[2-[1-(2,4-Difluoro-phenoxy)-1-methyl-ethyl]-1-(2-dimethylamino-ethyl)-1H-benzoimidazol-5-yl]-2-(4-ethanesulfonyl-phenyl)-acetamide]	–	15.6	52.4
CCS(=O)(=O)c1ccc(CC(=O)Nc2ccc(C#CC(C)(C)Oc3ccc(C(F)(F)F)cc3)cc2)cc1 [Example 76, 2-(4-Ethanesulfonyl-phenyl)-N-{4-[3-methyl-3-(4-trifluoromethyl-phenoxy)-but-1-yn-1-yl]-phenyl}-acetamide]	> 7.30	82.2	86.2
